The source of these data is ChEMBL document CHEMBL5046256, “The discovery of potent small molecule cyclic urea activators of STING” (Eur J Med Chem, 2022).

Holding throughout (type): cell-based
In assay [1] the test system is HEK-293T. Briefly: Agonist activity against human STING R232H variant transfected in HEK-293T cells co-expressing ISRE.ISG54 at 5 uM by luciferase reporter gene assay relative to control.
The test system of assay [2] is HEK-293T. Briefly: Agonist activity against human STING R232H variant transfected in HEK-293T cells co-expressing ISRE.ISG54 at 1 uM by luciferase reporter gene assay relative to control.
The nature of assay [3]: Agonist activity against human STING R232H variant transfected in HEK-293T cells co-expressing ISRE.ISG54 by luciferase reporter gene assay.

pEC50: −log10 of the molar value. Active and inactive are the calls of the source. No cut-off for these calls is given here.

For `CON1Cc2ccc(C(=O)NCc3c(F)cc(F)cc3F)cc2N(Cc2c(F)cccc2Cl)C1=O`, in assay [1] (filed as agonist), the Activity came out at 82%.
Still for that read-out and setting: the value for `CN1Cc2ncc(C(=O)NCc3c(F)cc(F)cc3F)cc2N(Cc2c(F)cccc2Cl)C1=O` was 76%.
`CN1Cc2ccc(CNCc3c(F)cc(F)cc3F)cc2N(Cc2c(F)cccc2Cl)C1=O` displayed an Activity in assay [1] of 3%.
Consider `CN1Cc2ccc(C(=O)NCc3ccc4occc4c3)cc2N(Cc2c(F)cccc2Cl)C1=O`, for which the Activity in assay [1] (filed as agonist) amounted to 70%.
As to `CN1Cc2ccc(C(=O)NCc3ccc(C(F)(F)F)nc3)cc2N(Cc2c(F)cccc2Cl)C1=O`, in assay [1], the outcome was inactive.
Still for that read-out and setting: to `Cn1cnc(N2Cc3ccc(C(=O)NCc4c(F)cc(F)cc4F)cc3N(Cc3c(F)cccc3Cl)C2=O)c1` belongs “inactive”.
For `Cc1cc(CN2C(=O)N(C)Cc3ccc(C(=O)NCc4c(F)cc(F)cc4F)cc32)on1`, the Activity in assay [2] was found to be 12%.
As for `CC1c2ccc(C(=O)NCc3c(F)cc(F)cc3F)cc2N(Cc2ccc(Cl)cc2F)C(=O)N1C` (stereo unspecified), in assay [2] (filed as agonist), the Activity is 65%.
The compound `CN1Cc2ccc(C(=O)NCc3ccc4ccoc4c3)cc2N(Cc2c(F)cccc2Cl)C1=O` came in with an Activity in assay [1] (filed as agonist) of 84%.
As for `CN1Cc2ccc(C(=O)NCc3ccc4cnn(C)c4c3)cc2N(Cc2c(F)cccc2Cl)C1=O`, the result in assay [1] was inactive.
`CC1c2ccc(C(=O)NCc3c(F)cc(F)cc3F)cc2N(Cc2c(F)cccc2F)C(=O)N1C` (racemic) gave an Activity in assay [2] (filed as agonist) of 64%.
Take `O=C(NCc1c(F)cc(F)cc1F)c1ccc2c(c1)N(Cc1c(F)cccc1Cl)C(=O)N(O)C2`: the Activity in assay [1] is 8%.
As for `CN1Cc2ccc(C(=O)NCc3ccccc3F)cc2N(Cc2c(F)cccc2Cl)C1=O`, the Activity in assay [2] came to 34%.
In the case of `CN1Cc2ccc(C(=O)NCc3cccc(C(=O)N4CCCC4)c3)cc2N(Cc2c(F)cccc2Cl)C1=O`, in assay [1], the outcome was inactive.
On the same count and under the same terms, to `CN1Cc2ccc(C(=O)NCc3c(F)cc(F)cc3F)cc2N(Cc2ccnn2C)C1=O` belongs 7%; to `Cc1nc(CN2C(=O)N(C)Cc3ccc(C(=O)NCc4c(F)cc(F)cc4F)cc32)co1`, 13%.
For the compound `CN1Cc2ccc(C(=O)NCc3c(F)cc(F)cc3F)cc2N(Cc2cn3ccccc3n2)C1=O`, the Activity in assay [1] was found to be 16%.
On to `CN1Cc2ccc(C(=O)NCc3cccc(-n4cccn4)c3)cc2N(Cc2c(F)cccc2Cl)C1=O`, for which the result in assay [1] was inactive.
Still for that read-out and setting: to `O=C(NCc1c(F)cc(F)cc1F)c1ccc2c(c1)N(Cc1cc(F)cc(F)c1)C(=O)N(C1CC1)C2` belongs 13%.
Still for that read-out and setting: the value for `CN1Cc2ccc(C(=O)NCc3cccc(-c4ncco4)c3)cc2N(Cc2c(F)cccc2Cl)C1=O` was “inactive”.
`Cc1cc(CN2C(=O)N(C)C(C)c3ccc(C(=O)NCc4c(F)cc(F)cc4F)cc32)ccn1` (racemic) registered an Activity in assay [1] (filed as agonist) of 61%.
Take `CN1Cc2ccc(C(=O)NCc3cccc4c3OCO4)cc2N(Cc2c(F)cccc2Cl)C1=O`: in assay [1], the Activity was 4%.
For the compound `CN1Cc2ccc(C(=O)NCc3cccc(N4CCCC4=O)c3)cc2N(Cc2c(F)cccc2Cl)C1=O`, in assay [1], the outcome was inactive.
On the same count and under the same terms, the value for `C[C@H]1c2ccc(C(=O)NCc3c(F)cc(F)cc3F)cc2N(Cc2c(Cl)c[nH]c(=O)c2F)C(=O)N1C` was 16%; that for `CN1Cc2ccc(C(=O)NCc3ccc4c(c3)NCCO4)cc2N(Cc2c(F)cccc2Cl)C1=O` was “inactive”; that for `CN1Cc2ncc(C(=O)NCc3c(F)cc(F)cc3F)cc2N(Cc2cc(F)cc(F)c2)C1=O` was 19%.
On the same count and under the same terms, to `CN1Cc2ccc(C(=O)NCc3c(F)cc(F)cc3F)cc2N(Cc2cn(C)cn2)C1=O` belongs 7%.
`CC1c2ccc(C(=O)NCc3c(F)cc(F)cc3F)cc2N(Cc2c(F)cccc2S(C)(=O)=O)C(=O)N1C` (stereo unspecified) returned an Activity in assay [2] (filed as agonist) of 61%.
On to `Cc1ccc(CNC(=O)c2ccc3c(c2)N(Cc2cc(F)cc(F)c2)C(=O)N(C)C3)o1`, for which the Activity in assay [1] amounted to 16%.
Take `CN1Cc2ccc(C(=O)NCc3c(F)cc(F)cc3F)cc2N(Cc2c(F)cccc2C#N)C1=O`: the Activity in assay [2] was determined as 15%.
As for `CN1Cc2ccc(C(=O)NCc3cnc(-c4ccccc4)s3)cc2N(Cc2c(F)cccc2Cl)C1=O`, the outcome in assay [1] was inactive.
Still for that read-out and setting: the value for `CN1Cc2ccc(C(=O)NCc3cccc(-n4cncn4)c3)cc2N(Cc2c(F)cccc2Cl)C1=O` was “inactive”.
In assay [1] (filed as agonist), `CN1Cc2ccc(C(=O)NCc3c(F)cc(F)cc3F)cc2N(Cc2cccc(C(N)=O)c2)C1=O` yielded an Activity of 57%.
In the case of `Cc1cccc(CN2C(=O)N(C)[C@@H](C)c3ccc(C(=O)NCc4c(F)cc(F)cc4F)cc32)c1F`, the pEC50 (in general, −log10 of the EC50, conventionally taken in molar units) in assay [3] (Homo sapiens, HEK-293T) is 7.33.
For the compound `CC1c2ccc(C(=O)NCc3c(F)cc(F)cc3F)cc2N(Cc2cc(F)cc(F)c2)C(=O)N1C` (stereo in doubt; 68), in assay [3] (hek-293t), the pEC50 is 6.93.
In the case of `Cc1cc(CN2C(=O)N(C)Cc3ccc(C(=O)NCc4c(F)cc(F)cc4F)cc32)nn1C`, the Activity in assay [1] is 14%.
`Cc1ccc(F)c(CN2C(=O)N(C)C(C)c3ccc(C(=O)NCc4c(F)cc(F)cc4F)cc32)n1` (stereo unspecified) returned an Activity in assay [2] (filed as agonist) of 60%.
`CC1c2ccc(C(=O)NCc3c(F)cc(F)cc3F)cc2N(Cc2ccccc2)C(=O)N1C` (stereo unspecified): in assay [3] (Homo sapiens, HEK-293T), the pEC50 was 6.57.
The same measure, in the same setting: to `CN1Cc2ccc(C(=O)NCc3cc4ccccc4o3)cc2N(Cc2cc(F)cc(F)c2)C1=O` belongs 5.65.
On the same count and under the same terms, to `Cc1ccc(CN2C(=O)N(C)[C@@H](C)c3ccc(C(=O)NCc4c(F)cc(F)cc4F)cc32)c(F)c1` belongs 6.87; to `C[C@H]1c2ccc(C(=O)NCc3c(F)cc(F)cc3F)cc2N(Cc2c(F)ccc(F)c2Cl)C(=O)N1C`, 7.44.
Still for that read-out and setting: to `CC1c2ccc(C(=O)NCc3c(F)cc(F)cc3F)cc2N(Cc2c(F)cc(Cl)cc2F)C(=O)N1C` (stereo unspecified) belongs 6.80.
As to `Cc1cc(CN2C(=O)N(C)C(C)c3ccc(C(=O)NCc4c(F)cc(F)cc4F)cc32)ccn1` (stereo in doubt; 74), the pEC50 in assay [3] (hek-293t) is 6.09.
Regarding `Cc1cc(CN2C(=O)N(C)Cc3ccc(C(=O)NCc4c(F)cc(F)cc4F)cc32)no1`, the Activity in assay [1] (filed as agonist) came out at 68%.
For `CN1Cc2ccc(C(=O)NCc3ccc(N4CCCC4=O)cc3)cc2N(Cc2c(F)cccc2Cl)C1=O`, the result in assay [1] was inactive.
In assay [3] (Homo sapiens, HEK-293T), `CC1c2ccc(C(=O)NCc3c(F)cc(F)cc3F)cc2N(Cc2ccccc2F)C(=O)N1C` (racemic) showed a pEC50 of 6.82.
Consider `CC1c2ccc(C(=O)NCc3c(F)cc(F)cc3F)cc2N(Cc2cc(C(N)=O)ccc2F)C(=O)N1C` (stereo unspecified), for which the Activity in assay [2] (filed as agonist) is 71%.
As for `CC1c2ccc(C(=O)NCc3c(F)cc(F)cc3F)cc2N(Cc2c(F)cccc2F)C(=O)N1C` (stereo in doubt; 72), the pEC50 in assay [3] (hek-293t) is 7.29.
On to `CN1Cc2ccc(C(=O)NCc3cccc(N4CCOCC4)c3)cc2N(Cc2c(F)cccc2Cl)C1=O`, for which the result in assay [1] was inactive.
With `Cc1ccc(Cl)c(CN2C(=O)N(C)Cc3ccc(C(=O)NCc4c(F)cc(F)cc4F)cc32)c1F`, the pEC50 in assay [3] (Homo sapiens, HEK-293T) was 6.39. This compound also gave an Activity in assay [1] (filed as agonist) of 68%.
`CC1c2ccc(C(=O)NCc3c(F)cc(F)cc3F)cc2N(Cc2ccncc2F)C(=O)N1C` (stereo unspecified) gave a pEC50 in assay [3] (Homo sapiens, HEK-293T) of 6.41.
With `CN1Cc2ccc(C(=O)NCc3ccc4c(c3)CC(=O)N4)cc2N(Cc2c(F)cccc2Cl)C1=O`, the Activity in assay [1] came to 2%.
For `CN1Cc2ccc(C(=O)NCc3c(F)cc(F)cc3F)cc2N(Cc2ccc(F)cc2F)C1=O`, the pEC50 in assay [3] (Homo sapiens, HEK-293T) is 6.69.
As for `CN1Cc2ccc(C(=O)NCc3c(F)cc(F)cc3F)cc2N(Cc2ccccc2Cl)C1=O`, in assay [1] (filed as agonist), the Activity came out at 76%.
`CC1c2ccc(C(=O)NCc3c(F)cc(F)cc3F)cc2N(Cc2ccc(F)cc2Cl)C(=O)N1C` (stereo unspecified) gave an Activity in assay [1] of 25%.
